Counter-ions that a name gives are not always drawn.
Experiments:
[1] = In vitro drug release by dialysis method; format: physicochemical; details: pH 7.4 PBS, after 3 h
[2] = In vivo pharmacokinetic after oral administration; design: species or system SD rats
[3] = Drug absorption in rat small intestine; format: in vivo; details: SD rats, intragastric 5 mg/kg DOX equivalent, 2 h, CLSM

cumulative release amount of DOX [1]: 90% | Frel, relative bioavailability ([2]; SD rats, oral, 30 mg/kg DOX equivalent, relative to DOX): 100% | AUC ([2]; SD, rat, plasma, po, 30 mg/kg): 4000 ± 20 ng·h/mL | Cmax ([2]; SD, rat, plasma, po, 30 mg/kg): 160 ± 10 ng/mL | MRT ([2]; SD, rat, plasma, po, 30 mg/kg): 24.6 ± 0.34 h | Tmax ([2]; SD, rat, plasma, po, 30 mg/kg): 1 h | concentration at 1 h ([2]; SD, rat, plasma, po, 30 mg/kg): 160 ng/mL | concentration at 8 h ([2]; SD, rat, plasma, po, 30 mg/kg): 130 ng/mL | half-life ([2]; SD, rat, plasma, po, 30 mg/kg): 12.6 ± 0.58 h | DOX fluorescence signal in small intestine tissue [3]: almost no red fluorescence signal
Compound: COc1cccc2c1C(=O)c1c(O)c3c(c(O)c1C2=O)C[C@@](O)(C(=O)CO)C[C@@H]3O[C@H]1C[C@H](N)[C@H](O)[C@H](C)O1 [DOX, doxorubicin hydrochloride]

From paper PMC9072246 (Acta Pharmaceutica Sinica. B, 2021)
